Laboratory results as given in publication PMC10147690, “Human TRPV1 structure and inhibition by the analgesic SB-366791” (Nature Communications, 2023).
Where “and” joins values, the source holds several entries; their conditions need not be identical. Identical values can stand only once. Like-named read-outs stand apart in the source and are kept apart here.

Experiments:
[1] = target: T1, hTRPV1 Y511A (Homo sapiens, UniProt Q8NER1, Y511A); test: whole-cell patch-clamp, SB-366791 inhibition of pH 5-induced current, Y511A; type: cell-based; conditions: for I / Imax: individual cells
T1 construct: expressed in transfected cells; host or cells: HEK293T ΔPIEZO1 cells, pIRES-EGFP plasmid

[2] = target: T2, hTRPV1 L515A (Homo sapiens, UniProt Q8NER1, L515A); test: whole-cell patch-clamp, SB-366791 inhibition of pH 5-induced current, L515A; type: cell-based; conditions: for I / Imax: +80 mV, individual cells
T2 construct: we used the same wild-type full-length construct to determine the hTRPV1 structure; expressed in transfected cells; host or cells: HEK293T ΔPIEZO1 cells, pIRES-EGFP plasmid

[3] = target: T3, hTRPV1 L547R (Homo sapiens, UniProt Q8NER1, L547R); test: whole-cell patch-clamp, SB-366791 inhibition of pH 5-induced current, L547R; type: cell-based
T3 construct: we used the same wild-type full-length construct to determine the hTRPV1 structure; expressed in transfected cells; host or cells: HEK293T ΔPIEZO1 cells, pIRES-EGFP plasmid

[4] = target: T4, hTRPV1 T550A (Homo sapiens, UniProt Q8NER1, T550A); test: whole-cell patch-clamp, SB-366791 inhibition of pH 5-induced current, T550A; type: cell-based
T4 construct: we used the same wild-type full-length construct to determine the hTRPV1 structure; expressed in transfected cells; host or cells: HEK293T ΔPIEZO1 cells, pIRES-EGFP plasmid

[5] = target: T5, hTRPV1 E693A (Homo sapiens, UniProt Q8NER1, E693A); test: whole-cell patch-clamp, SB-366791 inhibition of pH 5-induced current, E693A; type: cell-based; conditions: for I / Imax: individual cells
T5 construct: we used the same wild-type full-length construct to determine the hTRPV1 structure; expressed in transfected cells; host or cells: HEK293T ΔPIEZO1 cells, pIRES-EGFP plasmid

[6] = target: T6, hTRPV1 R557A (Homo sapiens, UniProt Q8NER1, R557A); test: whole-cell patch-clamp, SB-366791 on pH-induced current, R557A; type: cell-based; conditions: pH 5
T6 construct: expressed in transfected cells; host or cells: HEK293 cells

[7] = target: T7, hTRPV1 E570A (Homo sapiens, UniProt Q8NER1, E570A); test: whole-cell patch-clamp, SB-366791 on pH-induced current, E570A; type: cell-based; conditions: pH 5
T7 construct: expressed in transfected cells; host or cells: HEK293 cells

[8] = test system: panel of 47 different targets, including G-protein-coupled receptors and voltage-gated calcium-channels; conditions: cited from earlier work
[9] = test system: acute pain; conditions: co-administered with a calcium channel blocker; mice; cited from earlier work
[10] = target: T8, hTRPV1 (Homo sapiens, UniProt Q8NER1); conditions: no apparent change in the maximal response; cited from earlier work
[11] = test system: bone cancer pain; conditions: cited from earlier work
[12] = test system: glutamatergic transmission in a subset of neurons; conditions: pre-synaptic TRPV1-dependent mechanism following peripheral inflammation; cited from earlier work
[13] = test system: opiate-mediated behaviors; set-up: method as in PMID 27730727; conditions: rat studies; cited from earlier work
[14] = target: T8, hTRPV1; test: whole-cell patch-clamp at -40 mV, SB-366791 inhibition of capsaicin-activated hTRPV1 current and recovery; type: cell-based; set-up: we used the same wild-type full-length construct to determine the hTRPV1 structure; expressed in transfected cells; host or cells: HEK293T ΔPIEZO1 cells, pIRES-EGFP plasmid; I (Cap), hTRPV1 peak current amplitude / I (SB), hTRPV1 peak current amplitude: unit not given here
[15] = target: T8, hTRPV1; test: whole-cell patch-clamp, SB-366791 inhibition of pH 5-induced current, wild-type hTRPV1; type: cell-based; set-up: we used the same wild-type full-length construct to determine the hTRPV1 structure; expressed in transfected cells; host or cells: HEK293T ΔPIEZO1 cells, pIRES-EGFP plasmid
[16] = target: T6, hTRPV1 R557A; test: whole-cell patch-clamp, capsaicin on hTRPV1 R557A; type: cell-based; conditions: 10 μM capsaicin
[17] = target: T7, hTRPV1 E570A; test: whole-cell patch-clamp, capsaicin on hTRPV1 E570A; type: cell-based; conditions: 10 μM capsaicin
[18] = target: T1, hTRPV1 Y511A; test: whole-cell patch-clamp, capsaicin on hTRPV1 Y511A; type: cell-based; conditions: not shown
[19] = test system: rat TRPV1; set-up: method as in PMID 27638213; conditions: cited from earlier work
[20] = test system: mouse TRPV1; set-up: method as in PMID 27638213; conditions: cited from earlier work
[21] = test system: squirrel TRPV1; set-up: method as in PMID 27638213; conditions: cited from earlier work
[22] = test system: rat TRPV1 Y511A; conditions: cited from earlier work
[23] = target: the molecule itself; test: cryo-EM structure; apo hTRPV1 in cNW11 nanodiscs with soybean lipids or POPC:POPE:POPG (3:1:1); 150 mM NaCl, 20 mM Tris pH 8.0, 1 mM bME

Molecule: COc1cccc(NC(=O)/C=C/c2ccc(Cl)cc2)c1 [SB-366791, N-(3-methoxyphenyl)−4-chlorocinnamide]
- IC50 ([1]; +80 mV, mean ± SEM, n = 7): 253 ± 75 nM
- I / Imax ([1]; SB-366791 0.0001 μM, +80 mV): 0.951 and 0.974 and 0.889 and 1.022
- I / Imax ([1]; SB-366791 0.001 μM, +80 mV): 0.916 and 0.924 and 0.887 and 0.985
- I / Imax ([1]; SB-366791 0.01 μM, +80 mV): 0.893 and 0.810 and 0.838 and 0.939
- I / Imax ([1]; SB-366791 0.1 μM, +80 mV): 0.831 (2×) and 0.718 (2×)
- I / Imax ([1]; SB-366791 1 μM, +80 mV): 0.638 and 0.474 and 0.443 and 0.511
- I / Imax ([1]; SB-366791 10 μM, +80 mV): 0.537 and 0.399 and 0.380 and 0.562
- proportion of blocker-resistant current ([1]; mean ± SEM, n = 7): 0.490 ± 0.070
- sensitivity to inhibition by the blocker [2]: completely insensitive
- I / Imax ([2]; SB-366791 0.0001 μM): 1.151 and 1.003 and 0.775 and 1.067
- I / Imax ([2]; SB-366791 0.001 μM): 0.856 and 0.881 and 0.592 and 0.984
- I / Imax ([2]; SB-366791 0.01 μM): 0.762 and 0.808 and 0.507 and 0.880
- I / Imax ([2]; SB-366791 0.1 μM): 0.817 and 0.939 and 0.604 and 0.943
- I / Imax ([2]; SB-366791 1 μM): 0.888 and 1.233 and 0.959 and 1.206
- I / Imax ([2]; SB-366791 10 μM): 0.734 and 1.125 and 1.046 and 1.211
- sensitivity to inhibition by the blocker [3]: completely insensitive
- sensitivity to inhibition by the blocker [4]: completely insensitive
- I / Imax ([5]; SB-366791 0.0001 μM, pH 5, +80 mV): 0.860 (2×) and 0.830 and 0.980 and 0.850 and 0.890
- I / Imax ([5]; SB-366791 0.01 μM, pH 5, +80 mV): 0.820 and 0.780 and 0.880 and 0.830
- IC50 ([5]; pH 5, +80 mV, mean ± SEM, n = 6, read-out: IC50 of SB-366791): 100 ± 11 nM
- IC50 ([5]; pH 5, Hill fits of individual cells, read-out: SB-366791 IC50): 121 nM and 70 nM and 137 nM and 75 nM and 92 nM and 103 nM
- SB-366791-resistant fraction ([5]; pH 5, individual cells): 0.417 and 0.362 and 0.602 and 0.396 and 0.427 and 0.420
- fraction of blocker-insensitive current ([5]; pH 5, mean ± SEM, n = 6): 0.440 ± 0.034
- IC50 ([5]; response to reviewers, read-out: inhibition by SB-366791, IC50): 100 nM
- inhibition of current induced by changes in pH [6]: did not induce any inhibition
- inhibition of current induced by changes in pH [7]: did not induce any inhibition
- effect on a panel of 47 different targets [8]: little or no effect
- synergistic increase of antinociceptive effect [9]: 15 fold
- effect on capsaicin concentration dependence of hTRPV1-mediated calcium uptake [10]: rightward shift
- effect on analgesia by systemic morphine [11]: effectively potentiate the analgesic effects of systemic morphine
- effect on glutamatergic transmission [12]: inhibiting glutamatergic transmission
- effect on opiate-mediated behaviors [13]: impair opiate-mediated behaviors
- inhibition of capsaicin-activated hTRPV1 ([14]; 10 µM SB-366791 co-applied with 1 µM capsaicin, -40 mV): complete inhibition
- I (SB), hTRPV1 peak current amplitude ([14]; Fig 2b, 10 µM SB-366791 in the presence of 1 µM capsaicin, 10 s after SB-366791 application, individual cells, listed as SB): 0.010 and 0.020 and 0.060 and 0.011
- IC50 ([15]; WT, pH 5, Hill fits of individual cells, read-out: SB-366791 IC50): 5.41 nM and 45 nM and 38 nM and 6.46 nM and 26 nM and 13 nM and 15 nM
- SB-366791-resistant fraction ([15]; WT, pH 5, individual cells): 0.177 and 0.291 and 0.285 and 0.295 and 0.181 and 0.106 and 0.205
- IC50 ([15]; WT, response to reviewers, read-out: inhibition by SB-366791, IC50): 21 nM
- IC50 ([15]; wild-type, pH 5, +80 mV, mean ± SEM, n = 7, read-out: IC50 of SB-366791): 21 ± 6 nM
- proportion of blocker-resistant current ([15]; wild-type, pH 5, mean ± SEM, n = 7): 0.220 ± 0.027 and 0.22 ± 0.03

Molecule: COc1cc(CNC(=O)CCCC/C=C/C(C)C)ccc1O [capsaicin]
- currents induced by capsaicin [16]: did not induce any currents
- currents induced by capsaicin [17]: did not induce any currents
- sensitivity to capsaicin [18]: insensitive
- EC50 [19]: 527 ± 53 nM
- EC50 [20]: 776 ± 52 nM
- EC50 [21]: 529 ± 32 nM
- sensitivity to capsaicin [22]: insensitive
- I (Cap), hTRPV1 peak current amplitude ([14]; Fig 2b, 1 µM capsaicin, -40 mV, individual cells, listed as Cap): 0.380 and 0.430 and 4.800 and 2.000 and 1.600

B1: human TRPV1 (natural protein, UniProt Q8NER1 1-839, looked up)
chain: MKKWSSTDLGAAADPLQKDTCPDPLDGDPNSRPPPAKPQLSTAKSRTRLFGKGDSEEAFPVDCPHEEGELDSCPTITVSPVITIQRPGDGPTGARLLSQDSVAASTEKTLRLYDRRSIFEAVAQNNCQDLESLLLFLQKSKKHLTDNEFKDPETGKTCLLKAMLNLHDGQNTTIPLLLEIARQTDSLKELVNASYTDSYYKGQTALHIAIERRNMALVTLLVENGADVQAAAHGDFFKKTKGRPGFYFGELPLSLAACTNQLGIVKFLLQNSWQTADISARDSVGNTVLHALVEVADNTADNTKFVTSMYNEILMLGAKLHPTLKLEELTNKKGMTPLALAAGTGKIGVLAYILQREIQEPECRHLSRKFTEWAYGPVHSSLYDLSCIDTCEKNSVLEVIAYSSSETPNRHDMLLVEPLNRLLQDKWDRFVKRIFYFNFLVYCLYMIIFTMAAYYRPVDGLPPFKMEKTGDYFRVTGEILSVLGGVYFFFRGIQYFLQRRPSMKTLFVDSYSEMLFFLQSLFMLATVVLYFSHLKEYVASMVFSLALGWTNMLYYTRGFQQMGIYAVMIEKMILRDLCRFMFVYIVFLFGFSTAVVTLIEDGKNDSLPSESTSHRWRGPACRPPDSSYNSLYSTCLELFKFTIGMGDLEFTENYDFKAVFIILLLAYVILTYILLLNMLIALMGETVNKIAQESKNIWKLQRAITILDTEKSFLKCMRKAFRSGKLLQVGYTPDGKDDYRWCFRVDEVNWTTWNTNVGIINEDPGNCEGVKRTLSFSLRSSRVSGRHWKNFALVPLLREASARDRQSAQPEEVYLRQFSGSLKPEDAEVFKSPAASGEK
notes: human TRPV1, wild-type full-length construct; residues 1-839 by the printed numbers (models hold 115-769 or 199-754); the tags of the construct are not described; Homotetramer; Apo samples in cNW11 nanodiscs, the SB-366791 sample in GDN detergent; also called hTRPV1; hTRPV1Apo; source: HEK 293S GnTI- cells transduced with baculovirus, purified (strep resin, SEC)
- stoichiometry N [23]: 4
